These results are taken from ChEMBL document CHEMBL1131512, “A new antitumor agent: methyl sulfonium perchlorate of echinomycin” (Bioorg Med Chem Lett, 1998).

In brackets after ≈: the same amount, converted by molar mass.

The subject of assay [1] is B16. In words: In vitro cytotoxicity against B16 tumor cell lines. It counts as functional, cell-based. The conditions noted are these: Mus musculus.
In another assay the test system is SNU-16. Briefly: In vitro cytotoxicity against SNU16 tumor cell lines. It counts as functional, cell-based. As to conditions: Homo sapiens.
In assay [2] the test system is P388. Briefly: In vitro cytotoxicity against P388 tumor cell lines. In kind it is functional, cell-based. The conditions noted are these: Mus musculus.
Assay [3] has as its system P388. In words: In vivo antitumor activity was determined against P388 tumor cell lines in mice at dose of 1 mg/kg administered intraperitoneally. As to conditions: route intraperitoneal. In kind it is functional, Mus musculus.
The test system of assay [4] is B16. In words: In vivo antitumor activity was determined against B16 tumor cell lines in mice at dose of 1 mg/kg administered intraperitoneally. In kind it is functional, Mus musculus. As to conditions: route intraperitoneal.
Assay [5] has as its system P388. In words: In vivo antitumor activity was determined against P388 tumor cell lines in mice at dose of 1 mg/kg administered intraperitoneally (p<0.05). It counts as functional, Mus musculus. The conditions noted are these: route intraperitoneal.
The test system of assay [6] is B16. Briefly: In vivo antitumor activity was determined against B16 tumor cell lines in mice at dose of 0.25 mg/kg administered intraperitoneally. (p<0.05). It counts as functional, Mus musculus. The conditions noted are these: route intraperitoneal.
In assay [7] the test system is P388. Briefly: In vivo antitumor activity was determined against P388 tumor cell lines in mice at dose of 0.03125 mg/kg administered intraperitoneally. In kind it is functional, Mus musculus. The conditions noted are these: route intraperitoneal.
Assay [8] concerns P388. Briefly: In vivo antitumor activity was determined against P388 tumor cell lines in mice at dose of 0.25 mg/kg administered intraperitoneally. (p<0.05). It counts as functional, Mus musculus. As to conditions: route intraperitoneal.
Assay [9] relates to B16. Briefly: In vivo antitumor activity was determined against B16 tumor cell lines in mice at dose of 0.0625 mg/kg administered intraperitoneally. (p<0.05). In kind it is functional, Mus musculus. As to conditions: route intraperitoneal.
Assay [10] deals with B16. In words: In vivo antitumor activity was determined against B16 tumor cell lines in mice at dose of 1 mg/kg administered intraperitoneally. (p<0.05). In kind it is functional, Mus musculus. As to conditions: route intraperitoneal.
The test system of assay [11] is P388. In words: In vivo antitumor activity was determined against P388 tumor cell lines in mice at dose of 0.0625 mg/kg administered intraperitoneally. It counts as functional, Mus musculus. The conditions noted are these: route intraperitoneal.
Assay [12] relates to B16. In words: In vivo antitumor activity was determined against B16 tumor cell lines in mice at dose of 0.125 mg/kg administered intraperitoneally. (p<0.05). It counts as functional, Mus musculus. As to conditions: route intraperitoneal.
Assay [13] relates to P388. In words: In vivo antitumor activity was determined against P388 tumor cell lines in mice at dose of 0.125 mg/kg administered intraperitoneally. (p<0.05). It counts as functional, Mus musculus. The conditions noted are these: route intraperitoneal.
For assay [14], the system named is B16. In words: In vivo antitumor activity was determined against B16 tumor cell lines in mice at dose of 0.03125 mg/kg administered intraperitoneally. It counts as functional, Mus musculus. As to conditions: route intraperitoneal.
Assay [15] has as its system P388. Briefly: In vivo antitumor activity was determined against P388 tumor cell lines in mice at dose of 0.125 mg/kg administered intraperitoneally. It counts as functional, Mus musculus. The conditions noted are these: route intraperitoneal.
The test system of assay [16] is P388. Briefly: In vivo antitumor activity was determined against P388 tumor cell lines in mice at dose of 0.25 mg/kg administered intraperitoneally. In kind it is functional, Mus musculus. The conditions noted are these: route intraperitoneal.

Turning to `CC(C)[C@H]1C(=O)OC[C@@H](NC(=O)c2cnc3ccccc3n2)C(=O)N[C@@H](C)C(=O)N(C)[C@H]2C[S+]([O-])C([S+](C)[O-])[C@@H](C(=O)N1C)N(C)C(=O)[C@H](C)NC(=O)[C@H](NC(=O)c1cnc3ccccc3n1)COC(=O)[C@H](C(C)C)N(C)C2=O` (some centres undefined) [listing 1 of 2 here], the values for the IC50 in the assay with B16 [1], in the assay with SNU-16 and in the assay on P388 [2] were 1700 ng/mL (≈ 1500 nM), 590 ng/mL (≈ 521 nM) and 98 ng/mL (≈ 86.5 nM), respectively.
With `CC(C)[C@H]1C(=O)OC[C@@H](NC(=O)c2cnc3ccccc3n2)C(=O)N[C@@H](C)C(=O)N(C)[C@H]2CSC(S(C)(=O)=O)[C@@H](C(=O)N1C)N(C)C(=O)[C@H](C)NC(=O)[C@H](NC(=O)c1cnc3ccccc3n1)COC(=O)[C@H](C(C)C)N(C)C2=O` (some centres undefined) [listing 1 of 2 here], the MST in the assay with P388 [3] came to 25 days; with B16 [4], 17 days.
For the molecule `CC(C)[C@H]1C(=O)OC[C@@H](NC(=O)c2cnc3ccccc3n2)C(=O)N[C@@H](C)C(=O)N(C)[C@H]2CSC([S+](C)[O-])[C@@H](C(=O)N1C)N(C)C(=O)[C@H](C)NC(=O)[C@H](NC(=O)c1cnc3ccccc3n1)COC(=O)[C@H](C(C)C)N(C)C2=O` (some centres undefined) [listing 1 of 2 here], the results for the IC50 in the assay on B16 [1], in the assay with SNU-16 and with P388 [2] were 310 ng/mL (≈ 277 nM), 540 ng/mL (≈ 483 nM) and 8.8 ng/mL (≈ 7.88 nM), respectively.
Regarding `CC(C)[C@H]1C(=O)OC[C@@H](NC(=O)c2cnc3ccccc3n2)C(=O)N[C@@H](C)C(=O)N(C)[C@H]2C[S+]([O-])C([S+](C)[O-])[C@@H](C(=O)N1C)N(C)C(=O)[C@H](C)NC(=O)[C@H](NC(=O)c1cnc3ccccc3n1)COC(=O)[C@H](C(C)C)N(C)C2=O` (some centres undefined) [listing 2 of 2 here], the MST in the assay with P388 [3] worked out at 31 days; with B16 [4] it was 17 days.
On to `CSC1[C@H]2C(=O)N(C)[C@@H](C(C)C)C(=O)OC[C@@H](NC(=O)c3cnc4ccccc4n3)C(=O)N[C@@H](C)C(=O)N(C)[C@@H](C[S+]1C)C(=O)N(C)[C@@H](C(C)C)C(=O)OC[C@@H](NC(=O)c1cnc3ccccc3n1)C(=O)N[C@@H](C)C(=O)N2C.[Cl-]` (some centres undefined) [listing 1 of 2 here], for which the IC50 (as a rule, the concentration that gives 50% inhibition) with B16 [1] is 0.09 ng/mL; in the assay with SNU-16, 0.0049 ng/mL; in the assay on P388 [2] it was 0.0081 ng/mL.
Take `CC(C)[C@H]1C(=O)OC[C@@H](NC(=O)c2cnc3ccccc3n2)C(=O)N[C@@H](C)C(=O)N(C)[C@H]2CSC(S(C)(=O)=O)[C@@H](C(=O)N1C)N(C)C(=O)[C@H](C)NC(=O)[C@H](NC(=O)c1cnc3ccccc3n1)COC(=O)[C@H](C(C)C)N(C)C2=O` (some centres undefined) [listing 2 of 2 here]: the IC50 was determined as 820 ng/mL (≈ 724 nM) with B16 [1], 1100 ng/mL (≈ 971 nM) in the assay on SNU-16 and 60 ng/mL (≈ 52.9 nM) in the assay with P388 [2].
Turning to `CSC1[C@H]2C(=O)N(C)[C@@H](C(C)C)C(=O)OC[C@@H](NC(=O)c3cnc4ccccc4n3)C(=O)N[C@@H](C)C(=O)N(C)[C@@H](C[S+]1C)C(=O)N(C)[C@@H](C(C)C)C(=O)OC[C@@H](NC(=O)c1cnc3ccccc3n1)C(=O)N[C@@H](C)C(=O)N2C.[Cl-]` (some centres undefined) [listing 2 of 2 here], the MST with P388 [5] is 35 days; in the assay on B16 [6], 26 days; in the assay on P388 [7], 31 days; with P388 [8] it was 34 days; in the assay on B16 [9], 24 days; with B16 [10], 28 days. The MST came to 32 days in the assay with P388 [11], 25 days in the assay on B16 [12], 33 days with P388 [13] and 23 days with B16 [14].
As to `CS[C@H]1SC[C@H]2C(=O)N(C)[C@@H](C(C)C)C(=O)OC[C@@H](NC(=O)c3cnc4ccccc4n3)C(=O)N[C@@H](C)C(=O)N(C)[C@@H]1C(=O)N(C)[C@@H](C(C)C)C(=O)OC[C@@H](NC(=O)c1cnc3ccccc3n1)C(=O)N[C@@H](C)C(=O)N2C` [ECHINOMYCIN], the IC50 came to 6.5e-05 ng/mL (≈ 5.9e-05 nM) with B16 [1], 0.00016 ng/mL (≈ 0.000145 nM) in the assay with SNU-16 and 0.043 ng/mL (≈ 0.039 nM) in the assay on P388 [2]. The MST was 33 days in the assay on P388 [15]; 23 days in the assay on B16 [6]; 27 days in the assay on P388 [3]; 31 days with P388 [7]; 21 days in the assay with B16 [4]; 24 days in the assay with B16 [9]. The MST was 32 days with P388 [11], 26 days with P388 [16], 25 days with B16 [12] and 23 days with B16 [14].
As for `COc1cccc2c1C(=O)c1c(O)c3c(c(O)c1C2=O)C[C@@](O)(C(=O)CO)C[C@@H]3O[C@H]1C[C@H](N)[C@H](O)[C@H](C)O1` [DOXORUBICIN], the IC50 with B16 [1] amounted to 540 ng/mL (≈ 994 nM); in the assay with SNU-16, 160 ng/mL (≈ 294 nM); with P388 [2], 9.6 ng/mL (≈ 17.7 nM).
For `CC(C)[C@H]1C(=O)OC[C@@H](NC(=O)c2cnc3ccccc3n2)C(=O)N[C@@H](C)C(=O)N(C)[C@H]2CSC([S+](C)[O-])[C@@H](C(=O)N1C)N(C)C(=O)[C@H](C)NC(=O)[C@H](NC(=O)c1cnc3ccccc3n1)COC(=O)[C@H](C(C)C)N(C)C2=O` (some centres undefined) [listing 2 of 2 here], the MST turned out to be 27 days with P388 [3] and 20 days with B16 [4].
